Test results from publication PMC6442743 (Bioorganic & medicinal chemistry letters, 2018).

How the values were obtained:
[1] = Water solubility in sodium phosphate buffer; assay type: physicochemical; conditions: for fold more soluble in water than 3a: compared with 3a
human sEH = molecular target: T1, human sEH (Homo sapiens, UniProt P34913); test: sEH inhibition, kinetic fluorescent assay; assay type: biochemical
T1 sequence (P34913 1-555): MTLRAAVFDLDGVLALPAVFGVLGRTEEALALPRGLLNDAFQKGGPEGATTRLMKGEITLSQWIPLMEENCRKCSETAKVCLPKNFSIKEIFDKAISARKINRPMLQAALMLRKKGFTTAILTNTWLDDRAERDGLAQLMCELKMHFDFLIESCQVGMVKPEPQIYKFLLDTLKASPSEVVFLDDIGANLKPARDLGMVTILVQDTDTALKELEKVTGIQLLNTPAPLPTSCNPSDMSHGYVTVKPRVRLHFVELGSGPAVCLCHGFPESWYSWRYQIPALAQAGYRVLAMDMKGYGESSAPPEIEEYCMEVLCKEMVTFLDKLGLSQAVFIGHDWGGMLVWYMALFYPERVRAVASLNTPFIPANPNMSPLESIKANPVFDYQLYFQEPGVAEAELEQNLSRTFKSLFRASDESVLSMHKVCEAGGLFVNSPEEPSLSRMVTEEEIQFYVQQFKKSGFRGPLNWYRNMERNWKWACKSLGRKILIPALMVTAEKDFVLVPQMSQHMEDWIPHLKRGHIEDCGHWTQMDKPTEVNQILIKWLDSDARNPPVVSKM

[2] = compared with 1a, sodium phosphate buffer pH 7.4, 0.1 M, 1% DMSO

CC12CC3CC(C)(C1)CC(NC(=S)Nc1ccc(F)cc1)(C3)C2 [1n]
fold more soluble in water vs. 1a [1, 2]: 4 fold

S=C(Nc1ccc(C23CC4CC(CC(C4)C2)C3)cc1)Nc1ccc(C23CC4CC(CC(C4)C2)C3)cc1 [3j]
fold decrease in inhibition potency vs. 3a (human sEH; compared with 3a): 1367 fold | fold more soluble in water than 3a [1]: 3 fold

S=C(NCc1ccccc1)NC1C2CC3CC(C2)CC1C3 (stereo not drawn) [2b]
fold increase of inhibition potency vs. 2a (human sEH; compared with 2a): 6.7 fold

S=C(NCCNC(=S)NC12CC3CC(CC(C3)C1)C2)NC12CC3CC(CC(C3)C1)C2 [6a]
fold less potent than the rest of thioureas in this series (human sEH; compared with the other dithioureas of series 6): 10–137 fold

S=C(NC1C2CC3CC(C2)CC1C3)NC12CC3CC(CC(C3)C1)C2 (stereo not drawn) [4a]
fold more soluble in water than 3a [1]: 1.8 fold

S=C(NC12CC3CC(CC(C3)C1)C2)NC12CC3CC(CC(C3)C1)C2 [3a, di(adamantan-1yl)thiourea]
fold more water soluble than urea of corresponding structure ([1]; compared with corresponding urea, urea data ref 17 for 3a): 4.7 fold

S=C(Nc1ccccc1)NC1C2CC3CC(C2)CC1C3 (stereo not drawn) [2a]
fold less potent than its urea analog (human sEH; compared with urea analog): 13 fold

CCC(CC12CC3CC(CC(C3)C1)C2)NC(=S)Nc1ccccc1 (stereo not drawn) [1c]
fold less potent than 1a (human sEH; compared with 1a): 25 fold

S=C(NCCCCCCCCCCNC(=S)NC12CC3CC(CC(C3)C1)C2)NC12CC3CC(CC(C3)C1)C2 [6h]
fold difference in water solubility vs. 6a (decrease) ([1]; compared with 6a (1,2-ethylene spacer)): 3 fold

CC12CC3CC(C)(C1)CC(NC(=S)Nc1ccccc1)(C3)C2 [1a]
fold more potent than 1b (human sEH; compared with 1b): 2 fold | water solubility (in words) ([1]; sodium phosphate buffer pH 7.4, 0.1 M, 1% DMSO): poorly soluble in water

S=C(NCCc1ccccc1)NC1C2CC3CC(C2)CC1C3 (stereo not drawn) [2c]
fold increase of inhibition potency vs. 2b (human sEH; compared with 2b): 4 fold

CC12CC3CC(C)(C1)CC(NC(=S)NCc1ccccc1)(C3)C2 [1d]
fold decrease in water solubility vs. 1a [1, 2]: 4 fold

S=C(NC1C2CC3CC(C2)CC1C3)NC1C2CC3CC(C2)CC1C3 (stereo not drawn) [compound 5]
fold more soluble in water than 3a [1]: 1.5 fold
